Where a name gives a salt, the structure may show the parent alone. ± gives the standard deviation of the averaged measurements.
Test system: HepaRG
Experiment: LDH release cytotoxicity, % of total lysis control; higher = more cytotoxic
Conditions: 48 h
Method in brief: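 Eight-point half-log series of test chemicals, the highest at 100 µM, were given in duplicate for 48 h to single-lot HepaRG cells on collagen I-coated 96-well plates in serum-free induction medium with 0.5% DMSO. A Tecan Safire read resorufin fluorescence from CytoTox-ONE as a measure of LDH in 50 µL spent medium, with 0.1% Triton X in total lysis wells. Percent cytotoxicity was normalized to on-plate vehicle and total lysis controls and averaged over the duplicates.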

O=C(NC(=O)c1cc(F)c(F)cc1Cl)Nc1cc(F)ccc1N1CCC(C(=O)O)CC1 [AVE2865]
Conditions	LDH release cytotoxicity [%]
0.01581 µM	0.296 ± 0.54
0.05 µM	-1.08 ± 0.4
0.1581139 µM	-1.31 ± 0.41
0.5 µM	-0.965 ± 0.11
1.5811388 µM	-1.15 ± 0.067
5 µM	-0.168 ± 0.023
15.8114 µM	0.386 ± 0.34
50 µM	0.68 ± 0.52

O=[N+]([O-])c1c(Cl)c(Cl)c(Cl)c(Cl)c1Cl [Pentachloronitrobenzene]
Conditions	LDH release cytotoxicity [%]
0.03162 µM	-1.26 ± 0.72
0.1 µM	-1.49 ± 0.11
0.3162278 µM	-1.32 ± 0.71
1 µM	-1.55 ± 1.1
3.16228 µM	-0.822 ± 1.5
10 µM	0.118 ± 0.74
31.6228 µM	0.34 ± 0.41
100 µM	2.25 ± 1.1

C#CC1(O)CCC2C3CCC4=CC(=O)CCC4C3CCC21C (stereo unspecified) [Norethindrone]
Conditions	LDH release cytotoxicity [%]
0.03162 µM	-0.43 ± 0.47
0.1 µM	0.00115 ± 0.14
0.3162278 µM	-0.373 ± 0.45
1 µM	-0.047 ± 0.53
3.16228 µM	0.727 ± 1
10 µM	0.906 ± 1.7
31.6228 µM	2.7 ± 1.3
100 µM	2.69 ± 0.34

N#CC(CCc1ccc(Cl)cc1)(Cn1cncn1)c1ccccc1 (stereo unspecified) [Fenbuconazole]
Conditions	LDH release cytotoxicity [%]
0.03162 µM	-0.994 ± 0.62
0.1 µM	-0.764 ± 0.82
0.3162278 µM	-0.539 ± 0.46
1 µM	-0.261 ± 2.2
3.16228 µM	-0.9 ± 0.043
10 µM	-0.281 ± 0.28
31.6228 µM	5.08 ± 0.15
100 µM	31.3 ± 1.4

CN(C)C(=O)Nc1ccc(Cl)cc1 [Monuron]
Conditions	LDH release cytotoxicity [%]
0.031623 µM	-1.01 ± 1.8
0.1 µM	-1.82 ± 0.043
0.316228 µM	-2.23 ± 0.4
1 µM	-2.41 ± 0.67
3.16228 µM	-2.49 ± 0.18
10 µM	-1.39 ± 0.62
31.6228 µM	-0.555 ± 1.5
100 µM	0.589 ± 0.75

O=C1N=CC(F)C(=O)N1 (stereo unspecified) [5-Fluorouracil]
Conditions	LDH release cytotoxicity [%]
0.03162 µM	-1.55 ± 0.12
0.1 µM	-3.9 ± 2.7
0.3162278 µM	-0.836 ± 0.12
1 µM	-1.84 ± 0.21
3.16228 µM	-1.66 ± 0.052
10 µM	-1.56 ± 0.38
31.6228 µM	-1.98 ± 0.46
100 µM	8.44 ± 1.2

CC(C)Oc1cccc(NC(=O)c2ccccc2C(F)(F)F)c1 [Flutolanil]
Conditions	LDH release cytotoxicity [%]
0.031623 µM	-1.37 ± 1.1
0.1 µM	-2.54 ± 0.44
0.316228 µM	-3.14 ± 0.46
1 µM	-2.18 ± 0.77
3.16228 µM	-1.81 ± 1.2
10 µM	-1.86 ± 0.057
31.6228 µM	-0.343 ± 0.59
100 µM	3.01 ± 0.1

CCC(NC(=O)c1cc(F)ccc1NS(=O)(=O)c1cccc2cccnc12)c1ccccc1 (stereo unspecified) [AVE3295]
Conditions	LDH release cytotoxicity [%]
0.0301998 µM	-1.81 ± 0.3
0.0955 µM	-1.66 ± 1.1
0.301997 µM	-1.7 ± 0.59
0.955 µM	-1.55 ± 0.55
3.01998 µM	-1.75 ± 0.27
9.55 µM	-2.12 ± 0.47
30.199752 µM	-1.2 ± 0.89
95.5 µM	4.69 ± 0.74

Cc1nc(-c2ccccn2)ncc1C(=O)Nn1cc(C)c2cc(F)ccc21
Conditions	LDH release cytotoxicity [%]
0.0295673 µM	-0.89 ± 0.73
0.0935 µM	-1.26 ± 0.34
0.295673 µM	-0.0753 ± 0.68
0.935 µM	-1.71 ± 0.6
2.95673 µM	-2.8 ± 0.042
9.35 µM	-2.48 ± 0.043
29.5673 µM	-2.73 ± 0.47
93.5 µM	-1.5 ± 0.84

CCC(c1ccc(O)cc1)C(CC)c1ccc(O)cc1 (stereo not drawn) [meso-Hexestrol]
Conditions	LDH release cytotoxicity [%]
0.03162 µM	-1.95 ± 0.96
0.1 µM	-2.35 ± 0.15
0.3162278 µM	-1.46 ± 0.23
1 µM	-1.95 ± 0.05
3.16228 µM	-1.99 ± 0.005
10 µM	-1.59 ± 0.53
31.6228 µM	0.514 ± 0.37
100 µM	75.4 ± 1.7

CCCCOC(=O)c1ccccc1C(=O)OCc1ccccc1 [Benzyl butyl phthalate]
Conditions	LDH release cytotoxicity [%]
0.03162 µM	-0.944 ± 0.033
0.1 µM	-1.99 ± 0.74
0.3162278 µM	-1.76 ± 0.079
1 µM	-1.14 ± 0.11
3.16228 µM	-1.707 ± 0.0079
10 µM	-2.01 ± 0.3
31.6228 µM	-0.748 ± 0.15
100 µM	0.329 ± 0.83

O=C(O)C(Cl)(Cl)Cl [Sodium trichloroacetate]
Conditions	LDH release cytotoxicity [%]
0.03162 µM	-0.75 ± 0.63
0.1 µM	-0.518 ± 0.088
0.3162278 µM	-1.06 ± 0.36
1 µM	-0.987 ± 0.68
3.16228 µM	-1.23 ± 1.3
10 µM	-0.588 ± 0.51
31.6228 µM	0.00119 ± 0.52
100 µM	0.935 ± 0.7

Cc1ccc(N=CN(C)C=Nc2ccc(C)cc2C)c(C)c1 [Amitraz]
Conditions	LDH release cytotoxicity [%]
0.03162 µM	-0.945 ± 0.9
0.1 µM	-1.23 ± 0.17
0.3162278 µM	-2.67 ± 0.32
1 µM	-1.98 ± 0.68
3.16228 µM	-2.06 ± 0.065
10 µM	-1.45 ± 0.35
31.6228 µM	-0.79 ± 0.2
100 µM	1.17 ± 1.8

COCC(=O)N(c1c(C)cccc1C)C(C)C(=O)OC (stereo unspecified) [Metalaxyl]
Conditions	LDH release cytotoxicity [%]
0.03162 µM	-1.86 ± 0.61
0.1 µM	-0.811 ± 0.78
0.3162278 µM	-0.303 ± 0.27
1 µM	-0.996 ± 0.099
3.16228 µM	-0.0482 ± 0.74
10 µM	-0.0413 ± 0.72
31.6228 µM	0.228 ± 0.89
100 µM	2.83 ± 2.6

O=C(Nc1ccccc1-c1ccc(Cl)cc1)c1cccnc1Cl [Boscalid]
Conditions	LDH release cytotoxicity [%]
0.0332039 µM	-0.385 ± 0.58
0.105 µM	-0.471 ± 1.4
0.332039 µM	-0.417 ± 1.1
1.05 µM	-1.35 ± 1.3
3.32039 µM	-1.2 ± 0.15
10.5 µM	-0.348 ± 0.85
33.2039 µM	-0.586 ± 0.92
105 µM	0.89 ± 1.2

CC(C)c1ccc(C(=O)N=C(N)N)cc1S(C)(=O)=O [Cariporide mesylate]
Conditions	LDH release cytotoxicity [%]
0.02356 µM	-0.0357 ± 0.59
0.0745 µM	-1.69 ± 0.56
0.23559 µM	-0.975 ± 1.1
0.745 µM	-1.41 ± 0.45
2.3559 µM	-0.944 ± 0.16
7.45 µM	-0.838 ± 0.12
23.559 µM	-1.46 ± 0.13
74.5 µM	-0.256 ± 0.4

CNCc1ccc(NC(=O)c2c[nH]c3c2C(=O)CCC3)cc1
Conditions	LDH release cytotoxicity [%]
0.03162 µM	-1.87 ± 1.2
0.1 µM	-0.925 ± 0.22
0.3162278 µM	-1.24 ± 0.49
1 µM	-1.23 ± 0.55
3.16228 µM	-1.06 ± 0.37
10 µM	-0.719 ± 0.61
31.6228 µM	-0.723 ± 0.24
100 µM	-1.06 ± 0.15
